The values that follow come from PMC10871122, “Synthesis and In Vitro Evaluation as Potential Anticancer and Antioxidant Agents of Diphenylamine-Pyrrolidin-2-one-Hydrazone Derivatives” (International Journal of Molecular Sciences, 2023).

For series [1], the system named is human foreskin fibroblasts (HF) CRL-4001. Nature of the series: MTT cell viability assay, fibroblasts. Format: cell-based. To be noted: 100 µM, 72 h. From the text: (§1) The human malignant melanoma cell line IGR39, human triple-negative breast cancer MDA-MB-231, and human pancreatic carcinoma cell line Panc-1 were obtained from the American Type Culture Collection (ATCC, Manassas, VA, USA). Human foreskin fibroblasts (HF) CRL-4001 were originally obtained from ATCC and kindly provided by Prof. Helder Santos (University of Helsinki, Finland). Primary prostate carcinoma PPC-1 cell line was kindly provided by Prof. Tambet Teesalu (University of Tartu, Estonia). All cell lines were cultured in Dulbecco’s Modified Eagle’s GlutaMAX medium (Gibco (Carlsbad, CA, USA)), supplemented with 10,000 U/mL penicillin, 10 mg/mL streptomycin (Gibco), and 10% fetal bovine serum (Gibco). Cell cultures were grown at 37 °C in a humidified atmosphere containing 5% CO2. They were used until the passage of 20.
(§2) The effect of synthesized compounds on cell viability was studied using 3-(4,5-dimethylthiazol-2-yl)-2,5-diphenyltetrazolium bromide (MTT; Sigma-Aldrich Co., St Louis, MO, USA) assay, as described elsewhere. To summarize, the cells were seeded in triplicates in 96-well Corning plates (IGR39, MDA-MB-231, Panc-1 and PPC1: 4 × 10^3 cells/well; HF: 5 × 10^3 cells/well). The cells were treated with 100 μM of tested compounds after 24 h of incubation. After 72 h, the MTT reagent was added and the formazan crystals that had formed were dissolved in DMSO (Sigma-Aldrich Co., St. Louis, MO, USA). The absorbance was determined with a multidetection microplate reader at 570 and 630 nm.
(§3) The compound serial dilutions ranging from 50 µM to 1.56 µM were introduced to the cells. The Hill equation was used to calculate the EC50 value, or the concentration of a compound that results in a 50% reduction in the metabolic activity of cells.

Series [2] deals with human melanoma IGR39 cell line. Nature of the series: MTT cell viability assay, melanoma IGR39. Format: cell-based. The note with it: 100 µM, 72 h, MTT.
Excerpt: as §1, §2, §3

The test system of series [3] is tested cancer cell lines (IGR39, PPC-1, MDA-MB-231, Panc-1). Nature of the series: MTT cell viability assay, statements on the tested cancer cell lines together. The series is classed as cell-based, human. To be noted: for inhibition of cancer cell viability: 100 µM, 72 h, MTT; for selectivity against cancer cells: after determination of the dose-effect correlation. How it is done:
as §2, §3

Series [4] is described as follows: Ferric reducing antioxidant power (FRAP) assay. To be noted: for FRAP reducing power (Fe^2+): absorbance at 593 nm; for reducing power activity compared to the control antioxidant: vs protocatechuic acid. From the text:
The ferric reducing antioxidant power (FRAP) assay was used to evaluate the antioxidant potential of new compounds 2–17. Antioxidant assays are based on determining reduction power reactions (e.g., reduction Fe^3+ to Fe^2+) or scavenging free radicals (DPPH, ABTS). The FRAP assay is based on the method of single electron transfer (SET), measuring the reduction in the complex of ferric ions (Fe^3+)-ligand to the blue ferrous complex (Fe^2+). This method uses 2,4,6-tripyridyl-s-triazine (TPTZ) as the linking ligand to the iron. The antioxidant activity of the synthesized compounds was compared with that of the well-known antioxidant protocatechuic acid. […] PCA is a building block for pharmaceuticals and is widely used to produce many medicinal products such as veratridine (sodium channel inactivation inhibitor), erlotinib (antineoplastic), Picatin II (treatment of hepatitis B), itopride hydrochloride (gastrointestinal motility drug). PCA can also cause the induction of apoptosis of human leukemia cells. Moreover, the antioxidant activity of PCA is based on the reduction in free radical formation via the up-regulation of genes encoding enzymes with neutralizing activities.
Antioxidant activity was determined as an increase in absorbance at 593 nm, and the results were expressed as of Fe^2+ μmol/L and in relation to antioxidants, and protocatechuic acid, as positive control. The FRAP reagent contained 2.5 mL of 10 mM TPTZ solution in 40 mM HCl as well as 2.5 mL of FeCl3 (20 mM) and 25 mL of acetate buffer (0.3 M, pH = 3.6). Then, 100 μL of analyzed compounds (20 mM) were mixed with 3 mL of the FRAP reagent. The absorbance of the reaction mixture was measured spectrophotometrically at 593 nm using a UV-1280 UV-VIS spectrophotometer (Shimadzu Corporation, Kyoto, Japan). To compose the calibration curve, five concentrations of FeSO4·7H2O (5, 10, 15, 20, 25 μM) were used, and the absorbance was measured as a sample solution.

The subject of series [5] is prostate carcinoma PPC-1 cell line. Nature of the series: MTT cell viability assay, prostate carcinoma PPC-1. The note with it: 100 µM, 72 h, MTT. The series is classed as cell-based, human.
Excerpt: as §1, §2, §3

The molecule `CSc1ccc(C=NNC(=O)C2CC(=O)N(c3ccc(Nc4ccccc4)cc3)C2)cc1` (stereo not shown) [Compound 10, N′-(4-(methylthio)benzylidene)-5-oxo-1-(4-(phenylamino)phenyl)pyrrolidine-3-carbohydrazide] showed a melting point of 193 to 194 °C. Further, the “effect on fibroblasts compared to cancer cell lines” value in series [1] is recorded as “affected fibroblasts more than the tested cancer cell lines”. In series [2], the “effect on cell viability compared among the cell lines” value was “strongest effect on melanoma cells”.
Molecule `CC(=NNC(=O)C1CC(=O)N(c2ccc(Nc3ccccc3)cc2)C1)c1ccccc1` (stereo not shown) [Compound 15, 5-Oxo-1-(4-(phenylamino)phenyl)-N′-(1-phenylethylidene)pyrrolidine-3-carbohydrazide] registered a melting point of 225 to 226 °C. In addition, the “effect on cell viability compared among the cell lines” value in series [2] is recorded as “strongest effect on melanoma cells”. In series [3], the “inhibition of cancer cell viability” value is given as “less than 20%”. For the same molecule, in series [4], the “FRAP reducing power (Fe^2+)” value came out at 123.05 µmol/L and the “reducing power activity compared to the control antioxidant” value (shortened to “reducing power activity”) is reported as “higher than those of known antioxidants used as the controls”.
`CC(=NNC(=O)C1CC(=O)N(c2ccc(Nc3ccccc3)cc2)C1)c1ccc(N)cc1` (stereo not shown) [Compound 16, N′-(1-(4-aminophenyl)ethylidene)-5-oxo-1-(4-(phenylamino)phenyl)pyrrolidine-3-carbohydrazide] had a melting point of 230 to 231 °C. Moreover, the “effect on cell viability compared among the cell lines” value in series [2] is “strongest effect on melanoma cells”. In addition, in series [3], the “inhibition of cancer cell viability” value is recorded as “less than 20%”. Moreover, in series [4], the “antioxidant activity (FRAP) relative to protocatechuic acid” value is 1.2 times, the “FRAP reducing power (Fe^2+)” value is reported as 132.14 µmol/L and the “reducing power activity” value is “higher than those of known antioxidants used as the controls”.
In turn, `CC(=NNC(=O)C1CC(=O)N(c2ccc(Nc3ccccc3)cc2)C1)c1cccc(N)c1` (stereo not shown) [Compound 17, N′-(1-(3-aminophenyl)ethylidene)-5-oxo-1-(4-(phenylamino)phenyl)pyrrolidine-3-carbohydrazide] had a melting point of 239 to 240 °C. The “effect on fibroblasts compared to cancer cell lines” value in series [1] is listed as “affected fibroblasts more than the tested cancer cell lines”. Besides, the “effect on cell viability compared among the cell lines” value in series [5] is “most active against the prostate carcinoma cell line”. Besides, in series [4], the “FRAP reducing power (Fe^2+)” value is 129.28 µmol/L and the “reducing power activity” value is on record as “higher than those of known antioxidants used as the controls”.
Take `O=C(NN=Cc1ccccc1)C1CC(=O)N(c2ccc(Nc3ccccc3)cc2)C1` (stereo not shown) [Compound 2, N′-benzylidene-5-oxo-1-(4-(phenylamino)phenyl)pyrrolidine-3-carbohydrazide]: the melting point lay in the range of 122 to 123 °C. For the same molecule, the “effect on fibroblasts compared to cancer cell lines” value in series [1] is “affected fibroblasts more than the tested cancer cell lines”. For the same molecule, the “effect on cell viability compared among the cell lines” value in series [2] was “strongest effect on melanoma cells”. In addition, the “reducing power activity” value in series [4] is on record as “higher than those of known antioxidants used as the controls”.
`O=C(NN=Cc1ccc[nH]1)C1CC(=O)N(c2ccc(Nc3ccccc3)cc2)C1` (stereo not shown) [Compound 11, N′-((1H-pyrrol-2-yl)methylene)-5-oxo-1-(4-(phenylamino)phenyl)pyrrolidine-3-carbohydrazide]: the melting point lay in the range of 234 to 235 °C. In addition, in series [5], the “effect on cell viability compared among the cell lines” value is reported as “most active against the prostate carcinoma cell line”. In series [3], the “inhibition of cancer cell viability” value was “less than 20%”.
Take `O=C(O)c1ccc(O)c(O)c1` [protocatechuic acid, 3,4-dihydroxybenzoic acid, reference compound]: the “FRAP reducing power (Fe^2+)” value in series [4] is 109.05 µmol/L.
For `CCN(CC)c1ccc(C=NNC(=O)C2CC(=O)N(c3ccc(Nc4ccccc4)cc3)C2)c(O)c1` (stereo not shown) [Compound 8, N′-(4-(diethylamino)-2-hydroxybenzylidene)-5-oxo-1-(4-(phenylamino)phenyl)pyrrolidine-3-carbohydrazide], the melting point is 239 to 240 °C. Moreover, in series [1], the “effect on fibroblasts compared to cancer cell lines” value was “affected fibroblasts more than the tested cancer cell lines”. For the same molecule, in series [2], the “effect on cell viability compared among the cell lines” value is listed as “strongest effect on melanoma cells”. In addition, in series [4], the “FRAP reducing power (Fe^2+)” value is 120.24 µmol/L and the “reducing power activity” value is recorded as “higher than those of known antioxidants used as the controls”.
In the case of `O=C(NN=Cc1ccc(Br)cc1)C1CC(=O)N(c2ccc(Nc3ccccc3)cc2)C1` (stereo not shown) [Compound 3, N′-(4-bromobenzylidene)-5-oxo-1-(4-(phenylamino)phenyl)pyrrolidine-3-carbohydrazide], the melting point is 198 to 199 °C. For the same molecule, the “effect on cell viability compared among the cell lines” value in series [2] is on record as “strongest effect on melanoma cells”. Also, the “selectivity against cancer cells” value in series [3] was “nonselective against cancer cells”. Further, in series [4], the “FRAP reducing power (Fe^2+)” value was 120.08 µmol/L and the “reducing power activity” value is on record as “higher than those of known antioxidants used as the controls”.
As for `O=C(NN=Cc1ccc(Cl)cc1)C1CC(=O)N(c2ccc(Nc3ccccc3)cc2)C1` (stereo not shown) [Compound 4, N′-(4-chlorobenzylidene)-5-oxo-1-(4-(phenylamino)phenyl)pyrrolidine-3-carbohydrazide], the melting point fell in the range of 209 to 210 °C. Moreover, the “effect on cell viability compared among the cell lines” value in series [5] is on record as “most active against the prostate carcinoma cell line”. Also, the “selectivity against cancer cells” value in series [3] was “nonselective against cancer cells”.
`O=C(NN=Cc1ccccc1[N+](=O)[O-])C1CC(=O)N(c2ccc(Nc3ccccc3)cc2)C1` (stereo not shown) [Compound 9, N′-(2-nitrobenzylidene)-5-oxo-1-(4-(phenylamino)phenyl)pyrrolidine-3-carbohydrazide] showed a melting point of 192 to 193 °C. Further, the “effect on cell viability compared among the cell lines” value in series [2] is given as “strongest effect on melanoma cells”. For the same molecule, the “inhibition of cancer cell viability” value in series [3] is “less than 20%”. In series [4], the “FRAP reducing power (Fe^2+)” value worked out at 118.32 µmol/L and the “reducing power activity” value is listed as “higher than those of known antioxidants used as the controls”.
`CN(C)c1ccc(C=NNC(=O)C2CC(=O)N(c3ccc(Nc4ccccc4)cc3)C2)cc1` (stereo not shown) [Compound 7, N′-(4-(dimethylamino)benzylidene)-5-oxo-1-(4-(phenylamino)phenyl)pyrrolidine-3-carbohydrazide] registered a melting point of 218 to 219 °C. The “effect on fibroblasts compared to cancer cell lines” value in series [1] is reported as “affected fibroblasts more than the tested cancer cell lines”. In addition, the “reducing power activity” value in series [4] is recorded as “higher than those of known antioxidants used as the controls”.
The molecule `O=C(NN=Cc1ccc(Br)s1)C1CC(=O)N(c2ccc(Nc3ccccc3)cc2)C1` (stereo not shown) [Compound 12, N′-((5-bromothiophen-2-yl)methylene)-5-oxo-1-(4-(phenylamino)phenyl)pyrrolidine-3-carbohydrazide] gave a melting point of 240 to 241 °C. Also, the “effect on fibroblasts compared to cancer cell lines” value in series [1] is “affected fibroblasts more than the tested cancer cell lines”. Further, in series [5], the “effect on cell viability compared among the cell lines” value was “most active against the prostate carcinoma cell line”. Besides, the “reducing power activity” value in series [4] is recorded as “higher than those of known antioxidants used as the controls”.
